Like-named read-outs stand apart in the source and are kept apart here. Starred links: 1 amine or outer side, 2 acyl side, 3 side chain; linkers in the order of their positions; H or OH if unused. Non-standard residues stand in square brackets, D forms with d. Residues, ends and D or L forms follow the SMILES beside them. Phe(4-(cis-4-COOH-cHex)) = N[C@@H](Cc1ccc([C@H]2CC[C@@H](C(=O)O)CC2)cc1)C(=O)O; Phe(4-(5-CO2H-2-pyrimidyl)) = N[C@@H](Cc1ccc(-c2ncc(C(=O)O)cn2)cc1)C(=O)O; Phe(4-(4-Ac-piperazinyl)) = CC(=O)N1CCN(c2ccc(C[C@H](N)C(=O)O)cc2)CC1; dPro(4R-(4-pyridylmethyl)) = O=C(O)[C@H]1C[C@@H](Cc2ccncc2)CN1; Trp(βS-Me,4-F) = C[C@@H](c1c[nH]c2cccc(F)c12)[C@H](N)C(=O)O; X33 = O=C([C@H]1[C@@H](Cc2ccc(-c3ccncc3)cc2)CCN1[*:1])[*:2]; Bip(4'-COOH) = N[C@@H](Cc1ccc(-c2ccc(C(=O)O)cc2)cc1)C(=O)O; Ala(1-bicyclo(1.1.1)pentyl) = N[C@@H](CC12CC(C1)C2)C(=O)O; dPro(4R-Bzl(4-F)) = O=C(O)[C@H]1C[C@@H](Cc2ccc(F)cc2)CN1; Ala(morpholin-4-yl) = N[C@@H](CN1CCOCC1)C(=O)O; Ala(pyrimidin-5-yl) = N[C@@H](Cc1cncnc1)C(=O)O; Phe(4-COOH) = N[C@@H](Cc1ccc(C(=O)O)cc1)C(=O)O; Bip = N[C@@H](Cc1ccc(-c2ccccc2)cc1)C(=O)O; Pro(cis-4-F) = O=C(O)[C@@H]1C[C@H](F)CN1; Ala(4-THP) = N[C@@H](CC1CCOCC1)C(=O)O; d(αMeD) = C[C@@](N)(CC(=O)O)C(=O)O; 4Pal = N[C@@H](Cc1ccncc1)C(=O)O; αMeK = C[C@](N)(CCCCN)C(=O)O; αMeS = C[C@](N)(CO)C(=O)O; Dab = NCC[C@H](N)C(=O)O; Dap = NC[C@H](N)C(=O)O; Aib = CC(C)(N)C(=O)O
Target: T1, IL-1β (Homo sapiens, UniProt P01584)
T1 construct: purchased BioLegend 579404
Assay: IL-6 assay in MRC5 cells: inhibition of IL-1β induced IL-6 secretion (AlphaLISA)
Format: cell-based
Method in brief: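 Compound was pre-incubated 1 h at ambient temperature with recombinant human IL-1β at 2λ EC80 before adding human lung fibroblast MRC5 cells (3000/well) in EMEM with 0.025% BSA. After overnight culture at 37 °C, 5% CO2, secreted IL-6 in conditioned medium was measured by AlphaLISA; IC50 from 4-parameter logistic fits.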

[1] = inhibition of IL-1β induced IL-6 secretion in MRC5 cells, read-out: MRC5 IC50

T1 sequence (P01584 117-269): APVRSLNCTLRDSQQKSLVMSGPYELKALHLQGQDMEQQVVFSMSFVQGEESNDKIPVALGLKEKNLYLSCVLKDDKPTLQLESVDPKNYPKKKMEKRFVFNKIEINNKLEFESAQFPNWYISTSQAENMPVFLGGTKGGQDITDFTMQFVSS

| SMILES | IC50 [1] | further results |
| --- | --- | --- |
| C[C@@H](c1c[nH]c2cccc(F)c12)[C@@H]1NC(=O)[C@@H]2C[C@H](F)CN2C(=O)CNC(=O)[C@H](Cc2ccc(C(=O)O)cc2)NC(=O)[C@H](Cc2ccncc2)NC(=O)[C@H](Cc2ccc(-c3ccccc3)cc2)NC(=O)[C@H]2C[C@@H](Cc3ccncc3)CN2C(=O)CNC(=O)[C@H](CCN)NC(=O)[C@H](CCC(N)=O)NC(=O)[C@H](CC2CCOCC2)NC(=O)[C@@](C)(CC(=O)O)NC(=O)[C@H](Cc2c[nH]c3ccccc23)NC(=O)[C@H](CO)NC(=O)C(C)(C)NC1=O [Example 294] (cyclo([Bip][4Pal][Phe(4-COOH)]G[Pro(cis-4-F)][Trp(βS-Me,4-F)][Aib]SW[d(αMeD)][Ala(4-THP)]Q[Dab]G[dPro(4R-(4-pyridylmethyl))])) |  | IC50 (inhibition of IL-1β induced IL-6 secretion in MRC5 cells, compound pre-incubated 1 hour with recombinant human IL-1β, read-out: MRC5 IC50): 0.014 nM |
| C[C@@H](c1c[nH]c2cccc(F)c12)[C@@H]1NC(=O)[C@@H]2C[C@H](F)CN2C(=O)CNC(=O)[C@H](Cc2ccc(C(=O)O)cc2)NC(=O)[C@H](Cc2ccncc2)NC(=O)[C@H](Cc2ccc(-c3ccc(C(=O)O)cc3)cc2)NC(=O)[C@H]2[C@@H](Cc3ccc(-c4ccncc4)cc3)CCN2C(=O)CNC(=O)[C@H](CCN)NC(=O)[C@H](CCC(N)=O)NC(=O)[C@H](Cc2cncnc2)NC(=O)C(C)(C)NC(=O)[C@H](Cc2c[nH]c3ccccc23)NC(=O)[C@H](CCC(=O)O)NC(=O)C(C)(C)NC1=O [Example 55] (cyclo([Bip(4'-COOH)][4Pal][Phe(4-COOH)]G[Pro(cis-4-F)][Trp(βS-Me,4-F)][Aib]EW[Aib][Ala(pyrimidin-5-yl)]Q[Dab]G[X33])) | 0.024 nM |  |
| C[C@@H](c1c[nH]c2cccc(F)c12)[C@@H]1NC(=O)[C@@H]2C[C@H](F)CN2C(=O)CNC(=O)[C@H](Cc2ccc(C(=O)O)cc2)NC(=O)[C@H](CC23CC(C2)C3)NC(=O)[C@H](Cc2ccc([C@H]3CC[C@@H](C(=O)O)CC3)cc2)NC(=O)[C@H]2C[C@@H](Cc3ccc(F)cc3)CN2C(=O)CNC(=O)[C@H](CCN)NC(=O)[C@H](CCC(N)=O)NC(=O)[C@H](CO)NC(=O)C(C)(C)NC(=O)[C@H](Cc2c[nH]c3ccccc23)NC(=O)[C@H](CCC(=O)O)NC(=O)[C@](C)(CO)NC1=O [Example 107] (cyclo([Phe(4-(cis-4-COOH-cHex))][Ala(1-bicyclo(1.1.1)pentyl)][Phe(4-COOH)]G[Pro(cis-4-F)][Trp(βS-Me,4-F)][αMeS]EW[Aib]SQ[Dab]G[dPro(4R-Bzl(4-F))])) | 0.063 nM |  |
| C[C@@H]1NC(=O)C(C)(C)NC(=O)[C@H]([C@@H](C)c2c[nH]c3cccc(F)c23)NC(=O)[C@@H]2C[C@H](F)CN2C(=O)CNC(=O)[C@H](Cc2ccc(C(=O)O)cc2)NC(=O)[C@H](Cc2ccncc2)NC(=O)[C@H](Cc2ccc(-c3ccc(C(=O)O)cc3)cc2)NC(=O)[C@H]2C[C@@H](Cc3ccc(F)cc3)CN2C(=O)CNC(=O)[C@H](CCN)NC(=O)[C@H](CCC(N)=O)NC(=O)[C@H](Cc2cncnc2)NC(=O)[C@](C)(CCCCN)NC(=O)[C@H](Cc2c[nH]c3ccccc23)NC1=O [Example 134] (cyclo([Bip(4'-COOH)][4Pal][Phe(4-COOH)]G[Pro(cis-4-F)][Trp(βS-Me,4-F)][Aib]AW[αMeK][Ala(pyrimidin-5-yl)]Q[Dab]G[dPro(4R-Bzl(4-F))])) | 0.021 nM |  |
| C[C@@H](c1c[nH]c2cccc(F)c12)[C@@H]1NC(=O)[C@@H]2C[C@H](F)CN2C(=O)CNC(=O)[C@H](Cc2ccc(C(=O)O)cc2)NC(=O)[C@H](Cc2ccncc2)NC(=O)[C@H](Cc2ccc(-c3ccc(C(=O)O)cc3)cc2)NC(=O)[C@H]2C[C@@H](Cc3ccc(F)cc3)CN2C(=O)CNC(=O)[C@H](CO)NC(=O)[C@H](CCC(N)=O)NC(=O)[C@H](CN2CCOCC2)NC(=O)C(C)(C)NC(=O)[C@H](Cc2c[nH]c3ccccc23)NC(=O)[C@H](CCC(=O)O)NC(=O)C(C)(C)NC1=O [Example 125] (cyclo([4Pal][Phe(4-COOH)]G[Pro(cis-4-F)][Trp(βS-Me,4-F)][Aib]EW[Aib][Ala(morpholin-4-yl)]QSG[dPro(4R-Bzl(4-F))][Bip(4'-COOH)])) | 0.041 nM |  |
| CC(=O)N1CCN(c2ccc(C[C@@H]3NC(=O)[C@H]4C[C@@H](Cc5ccc(F)cc5)CN4C(=O)CNC(=O)[C@H](CCN)NC(=O)[C@H](CCC(N)=O)NC(=O)[C@H](Cc4cncnc4)NC(=O)C(C)(C)NC(=O)[C@H](Cc4c[nH]c5ccccc45)NC(=O)[C@H](CCC(=O)O)NC(=O)C(C)(C)NC(=O)[C@H]([C@@H](C)c4c[nH]c5cccc(F)c45)NC(=O)[C@@H]4C[C@H](F)CN4C(=O)CNC(=O)[C@H](Cc4ccc(C(=O)O)cc4)NC(=O)[C@H](Cc4ccncc4)NC3=O)cc2)CC1 [Example 37] (cyclo([Phe(4-(4-Ac-piperazinyl))][4Pal][Phe(4-COOH)]G[Pro(cis-4-F)][Trp(βS-Me,4-F)][Aib]EW[Aib][Ala(pyrimidin-5-yl)]Q[Dab]G[dPro(4R-Bzl(4-F))])) | 0.033 nM |  |
| C[C@@H](c1c[nH]c2cccc(F)c12)[C@@H]1NC(=O)[C@@H]2C[C@H](F)CN2C(=O)CNC(=O)[C@H](Cc2ccc(C(=O)O)cc2)NC(=O)[C@H](CC23CC(C2)C3)NC(=O)[C@H](Cc2ccc(-c3ncc(C(=O)O)cn3)cc2)NC(=O)[C@H]2C[C@@H](Cc3ccc(F)cc3)CN2C(=O)CNC(=O)[C@H](CCN)NC(=O)[C@H](CCC(N)=O)NC(=O)[C@H](Cc2cncnc2)NC(=O)C(C)(C)NC(=O)[C@H](Cc2c[nH]c3ccccc23)NC(=O)[C@H](CCC(=O)O)NC(=O)C(C)(C)NC1=O [Example 82] (cyclo([Phe(4-(5-CO2H-2-pyrimidyl))][Ala(1-bicyclo(1.1.1)pentyl)][Phe(4-COOH)]G[Pro(cis-4-F)][Trp(βS-Me,4-F)][Aib]EW[Aib][Ala(pyrimidin-5-yl)]Q[Dab]G[dPro(4R-Bzl(4-F))])) | 0.054 nM |  |
| C[C@@H](c1c[nH]c2cccc(F)c12)[C@@H]1NC(=O)[C@@H]2C[C@H](F)CN2C(=O)CNC(=O)[C@H](Cc2ccc(C(=O)O)cc2)NC(=O)[C@H](Cc2ccncc2)NC(=O)[C@H](Cc2ccc(-c3ccc(C(=O)O)cc3)cc2)NC(=O)[C@H]2C[C@@H](Cc3ccc(F)cc3)CN2C(=O)CNC(=O)[C@H](CN2CCOCC2)NC(=O)[C@H](CCC(N)=O)NC(=O)[C@H](Cc2cncnc2)NC(=O)C(C)(C)NC(=O)[C@H](Cc2c[nH]c3ccccc23)NC(=O)[C@H](CCC(=O)O)NC(=O)C(C)(C)NC1=O [Example 24] (cyclo([Bip(4'-COOH)][4Pal][Phe(4-COOH)]G[Pro(cis-4-F)][Trp(βS-Me,4-F)][Aib]EW[Aib][Ala(pyrimidin-5-yl)]Q[Ala(morpholin-4-yl)]G[dPro(4R-Bzl(4-F))])) | 0.049 nM |  |
| C[C@@H](O)[C@@H]1NC(=O)C(C)(C)NC(=O)[C@H]([C@@H](C)c2c[nH]c3cccc(F)c23)NC(=O)[C@@H]2C[C@H](F)CN2C(=O)CNC(=O)[C@H](Cc2ccc(C(=O)O)cc2)NC(=O)[C@H](Cc2ccncc2)NC(=O)[C@H](Cc2ccc(-c3ccc(C(=O)O)cc3)cc2)NC(=O)[C@H]2C[C@@H](Cc3ccc(F)cc3)CN2C(=O)CNC(=O)[C@H](CCN)NC(=O)[C@H](CCC(N)=O)NC(=O)[C@H](Cc2cncnc2)NC(=O)[C@](C)(CCCCN)NC(=O)[C@H](Cc2c[nH]c3ccccc23)NC1=O [Example 137] (cyclo([Bip(4'-COOH)][4Pal][Phe(4-COOH)]G[Pro(cis-4-F)][Trp(βS-Me,4-F)][Aib]TW[αMeK][Ala(pyrimidin-5-yl)]Q[Dab]G[dPro(4R-Bzl(4-F))])) | 0.022 nM |  |
| C[C@@H](c1c[nH]c2cccc(F)c12)[C@@H]1NC(=O)[C@@H]2C[C@H](F)CN2C(=O)CNC(=O)[C@H](Cc2ccc(C(=O)O)cc2)NC(=O)[C@H](Cc2ccncc2)NC(=O)[C@H](Cc2ccc(-c3ccc(C(=O)O)cc3)cc2)NC(=O)[C@H]2C[C@@H](Cc3ccncc3)CN2C(=O)CNC(=O)[C@H](CN)NC(=O)[C@H](CCC(N)=O)NC(=O)[C@H](Cc2ccncc2)NC(=O)C(C)(C)NC(=O)[C@H](Cc2c[nH]c3ccccc23)NC(=O)[C@H](CCC(=O)O)NC(=O)C(C)(C)NC1=O [Example 47] (cyclo([Bip(4'-COOH)][4Pal][Phe(4-COOH)]G[Pro(cis-4-F)][Trp(βS-Me,4-F)][Aib]EW[Aib][4Pal]Q[Dap]G[dPro(4R-(4-pyridylmethyl))])) | 0.029 nM |  |
| C[C@@H](c1c[nH]c2cccc(F)c12)[C@@H]1NC(=O)[C@@H]2C[C@H](F)CN2C(=O)CNC(=O)[C@H](Cc2ccc(C(=O)O)cc2)NC(=O)[C@H](Cc2ccncc2)NC(=O)[C@H](Cc2ccc(-c3ccc(C(=O)O)cc3)cc2)NC(=O)[C@H]2C[C@@H](Cc3ccc(F)cc3)CN2C(=O)CNC(=O)[C@H](CCN)NC(=O)[C@H](CCC(N)=O)NC(=O)[C@H](CCCNC(=N)N)NC(=O)C(C)(C)NC(=O)[C@H](Cc2c[nH]c3ccccc23)NC(=O)[C@H](CCC(=O)O)NC(=O)C(C)(C)NC1=O [Example 33] (cyclo([Bip(4'-COOH)][4Pal][Phe(4-COOH)]G[Pro(cis-4-F)][Trp(βS-Me,4-F)][Aib]EW[Aib]RQ[Dab]G[dPro(4R-Bzl(4-F))])) | 0.033 nM |  |
| C[C@@H](c1c[nH]c2cccc(F)c12)[C@@H]1NC(=O)[C@@H]2C[C@H](F)CN2C(=O)CNC(=O)[C@H](Cc2ccc(C(=O)O)cc2)NC(=O)[C@H](Cc2ccncc2)NC(=O)[C@H](Cc2ccc(-c3ccc(C(=O)O)cc3)cc2)NC(=O)[C@H]2C[C@@H](Cc3ccc(F)cc3)CN2C(=O)CNC(=O)[C@H](CCN)NC(=O)[C@H](CCC(N)=O)NC(=O)[C@H](Cc2cncnc2)NC(=O)C(C)(C)NC(=O)[C@H](Cc2c[nH]c3ccccc23)NC(=O)[C@H](CCC(=O)O)NC(=O)[C@](C)(CO)NC1=O [Example 22] (cyclo([4Pal][Phe(4-COOH)]G[Pro(cis-4-F)][Trp(βS-Me,4-F)][αMeS]EW[Aib][Ala(pyrimidin-5-yl)]Q[Dab]G[dPro(4R-Bzl(4-F))][Bip(4'-COOH)])) |  | IC50: 0.027 nM |
